# From PMC8079988, “Inhibition of TMEM16A by Natural Product Silibinin: Potential Lead Compounds for Treatment of Lung Adenocarcinoma” (Frontiers in Pharmacology, 2021)
# Target: T1, TMEM16A (Mus musculus, UniProt Q8BHY3)
# T1 construct: gene Ano1
# T1 sequence (Q8BHY3 1-960): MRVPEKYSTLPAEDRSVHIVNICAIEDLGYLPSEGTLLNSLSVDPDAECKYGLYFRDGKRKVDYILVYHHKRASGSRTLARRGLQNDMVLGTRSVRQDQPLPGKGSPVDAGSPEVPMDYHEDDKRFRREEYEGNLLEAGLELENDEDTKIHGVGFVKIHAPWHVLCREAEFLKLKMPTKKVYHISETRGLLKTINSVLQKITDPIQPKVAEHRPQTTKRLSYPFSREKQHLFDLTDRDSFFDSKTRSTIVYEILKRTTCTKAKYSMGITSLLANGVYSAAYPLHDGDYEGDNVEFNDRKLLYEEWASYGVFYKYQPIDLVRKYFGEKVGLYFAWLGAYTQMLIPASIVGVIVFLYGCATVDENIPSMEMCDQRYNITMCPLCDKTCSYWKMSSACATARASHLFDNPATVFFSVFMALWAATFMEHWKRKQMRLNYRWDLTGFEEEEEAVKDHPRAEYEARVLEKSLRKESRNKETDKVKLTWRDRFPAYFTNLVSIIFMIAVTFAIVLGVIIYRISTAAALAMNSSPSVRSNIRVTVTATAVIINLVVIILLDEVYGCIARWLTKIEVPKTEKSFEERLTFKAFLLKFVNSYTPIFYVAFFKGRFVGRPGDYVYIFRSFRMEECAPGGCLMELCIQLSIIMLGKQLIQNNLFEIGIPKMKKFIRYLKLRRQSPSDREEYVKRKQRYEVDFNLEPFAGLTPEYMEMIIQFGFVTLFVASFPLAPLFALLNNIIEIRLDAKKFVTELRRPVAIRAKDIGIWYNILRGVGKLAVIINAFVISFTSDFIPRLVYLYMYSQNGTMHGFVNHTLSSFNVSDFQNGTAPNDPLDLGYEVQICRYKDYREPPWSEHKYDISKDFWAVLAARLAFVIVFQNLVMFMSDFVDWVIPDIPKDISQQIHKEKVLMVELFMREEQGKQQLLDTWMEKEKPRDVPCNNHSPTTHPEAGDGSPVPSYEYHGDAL
# Experiment: whole-cell patch clamp in LA795 cells; YFP quenching; site-directed mutagenesis
# Type: cell-based
smiles,measurement,value
COc1cc(C2Oc3cc([C@H]4Oc5cc(O)cc(O)c5C(=O)[C@@H]4O)ccc3OC2CO)ccc1O (stereo partly shown) [silibinin],IC50,30.9 ± 2.1 µM
